Data set [1] has as its target T1, Stimulator of interferon genes protein (Homo sapiens, UniProt Q86WV6, G230A/R293Q/R71H). In words: Inhibition of cGAMP-induced STING HAQ mutant transfected in human THP1-Blue ISG cells preincubated with compound for 6 hrs followed by cGAMP addition and measured after 18 hrs by QUANTI-Blue based microplate reader analysis. In kind it is cell-based.
Data set [2] concerns the target T2, Stimulator of interferon genes protein (Mus musculus) (UniProt Q3TBT3).
T2 sequence (whole entry): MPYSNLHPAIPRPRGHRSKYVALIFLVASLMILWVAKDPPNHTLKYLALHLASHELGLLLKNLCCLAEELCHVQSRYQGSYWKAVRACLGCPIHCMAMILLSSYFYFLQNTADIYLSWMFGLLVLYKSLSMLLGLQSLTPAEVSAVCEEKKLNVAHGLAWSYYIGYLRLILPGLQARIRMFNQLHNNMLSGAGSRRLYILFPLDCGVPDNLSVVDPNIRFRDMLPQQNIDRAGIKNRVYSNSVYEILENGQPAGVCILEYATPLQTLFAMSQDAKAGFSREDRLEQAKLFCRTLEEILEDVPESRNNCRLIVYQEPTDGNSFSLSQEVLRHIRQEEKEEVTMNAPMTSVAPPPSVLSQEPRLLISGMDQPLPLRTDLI
In words: In vivo inhibition of cGAMP-induced STING activation in autoimmune disease female C57BL/6 mouse model assessed as decrease in cGAMP-induced serum CXCL-10 level at 20 mg/kg, po pretreated with compound for 2 hrs followed by cGAMP addition and measured after 3 hrs by ELISA. In kind it is functional, organism-based. On the technique in general: In an ELISA, binding on a coated surface is turned into a signal by an enzyme label.

Data set [3] has as its system Stimulator of interferon genes protein (Homo sapiens), Q86WV6 [UNDEFINED MUTATION]. In words: Induction of STING S154 mutant degradation in human THP-1 cells at 1 uM incubated for 12 hrs by Western blotting analysis. In kind it is cell-based.
For data set [4] the test system is unchanged. The data set can be described thus: Induction of STING S154 mutant degradation in human THP-1 cells by measuring maximum efficacy at 0.01 to 10 uM incubated for 24 hrs by Western blotting analysis relative to control. It counts as cell-based. The note with it: dose 0.01-10 µM. In general terms: A western blot detects proteins with antibodies after separation by electrophoresis.

For data set [5], the target named is T3, Stimulator of interferon genes protein (Homo sapiens, UniProt Q86WV6). The data set can be described thus: Inhibition of STING activation in human THP1-Blue ISG cells assessed as decrease in cGAMP-induced IRF3 phosphorylation at 0.1 to 1 uM preincubated with compound for 6 hrs followed by cGAMP addition and measured after 3 hrs by Western blotting analysis. In kind it is cell-based. The settings on record: dose 0.1-1 µM, time 9.0 hrs.
Target sequence in this assay (Q86WV6 whole entry): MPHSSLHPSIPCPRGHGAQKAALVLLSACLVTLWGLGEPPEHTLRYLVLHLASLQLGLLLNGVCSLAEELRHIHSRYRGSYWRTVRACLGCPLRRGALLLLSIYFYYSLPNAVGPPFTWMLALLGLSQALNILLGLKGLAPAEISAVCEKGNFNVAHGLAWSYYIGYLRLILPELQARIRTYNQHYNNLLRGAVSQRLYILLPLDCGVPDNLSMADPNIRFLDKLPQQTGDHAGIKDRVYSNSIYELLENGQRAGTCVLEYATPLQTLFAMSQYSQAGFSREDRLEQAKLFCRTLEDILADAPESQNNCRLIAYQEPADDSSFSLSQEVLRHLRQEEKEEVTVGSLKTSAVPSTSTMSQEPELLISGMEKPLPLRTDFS

A short description of data set [6]: Metabolic stability in human plasma assessed as half life in presence of NADPH by LC-MS/MS analysis. In kind it is ADME, cell-free.
Data set [7] is described as follows: AUC in mouse at 20 mg/kg, po by LC-MS/MS analysis. It counts as ADME, organism-based. The settings on record: in vivo.
Data set [8] concerns the target T1, Stimulator of interferon genes protein. The data set can be described thus: Inhibition of diABZI-induced STING HAQ mutant transfected in human THP1-Blue ISG cells preincubated with compound for 6 hrs followed by diABZI addition and measured after 18 hrs by QUANTI-Blue based microplate reader analysis. In kind it is cell-based.
Data set [9] is described as follows: Metabolic stability in mouse liver microsomes assessed as half life at 10 uM in presence of NADPH by LC-MS/MS analysis. In kind it is ADME, Microsome. A general note: Microsomes from liver hold many membrane-bound enzymes, among them those of drug oxidation.
For data set [10], the target named is T2, Stimulator of interferon genes protein (Mus musculus). The data set can be described thus: In vivo inhibition of cGAMP-induced STING activation in autoimmune disease female C57BL/6 mouse model assessed as decrease in cGAMP-induced serum CXCL-10 level at 10 mg/kg, sc pretreated with compound for 2 hrs followed by cGAMP addition and measured after 3 hrs by ELISA. In kind it is functional, organism-based.

For data set [11], the target named is T3, Stimulator of interferon genes protein. The data set can be described thus: Inhibition of cGAMP-induced STING R232 mutant transfected human THP-1 cells preincubated with compound for 6 hrs followed by cGAMP addition and measured after 18 hrs by QUANTI-Luc based microplate reader analysis. It counts as cell-based.
Target sequence in this assay (Q86WV6 whole entry, looked up, change not shown): as the sequence (Q86WV6 whole entry) above
The target is the same in data set [12]. The data set can be described thus: Inhibition of STING in human THP-1 cells assessed as inhibition of cGAMP-induced IFN-beta release at 0.05 to 0.5 uM pretreated with compound for 6 hrs followed by cGAMP addition and measured after 18 hrs by ELISA. It counts as cell-based. The note with it: dose 0.05-0.5 µM, time 24.0 hrs.
Target sequence in this assay (Q86WV6 whole entry): as above
Data set [13] has as its system Stimulator of interferon genes protein (Homo sapiens), Q86WV6 [UNDEFINED MUTATION]. In words: Induction of STING M155 mutant degradation in human THP-1 cells at 1 uM preincubated with MG132 for 2 hrs followed by compound addition and measured after 22 hrs by Western blotting analysis. It counts as cell-based.
The nature of data set [14]: Apparent oral clearance in mouse at 20 mg/kg, po by LC-MS/MS analysis. It counts as ADME, organism-based. The settings on record: in vivo.
Data set [15] has as its target T2, Stimulator of interferon genes protein (Mus musculus). In words: Inhibition of STING in mouse BMDM cells assessed as inhibition of ODN 2395-induced IFN-beta release at 0.05 to 0.5 uM pretreated with compound for 6 hrs followed by ODN 2395 addition and measured after 18 hrs by ELISA. It counts as cell-based. The note with it: dose 0.05-0.5 µM, time 24.0 hrs.
The target of data set [16] is T3, Stimulator of interferon genes protein. The data set can be described thus: Induction of STING M155 mutant degradation in human THP-1 cells incubated for 24 hrs by Western blotting analysis. It counts as cell-based.
Target sequence in this assay (Q86WV6 whole entry, looked up, change not shown): as the sequence (Q86WV6 whole entry) above

Consider one molecule from ChEMBL document CHEMBL6182913, “Design of Potent Small-Molecule Stimulator of Interferon Gene Inhibitor and Stimulator of Interferon Gene Mutant-Specific Degrader” (J Med Chem, 2025).

In general, pIC50 refers to the negative decadic logarithm of the IC50, by convention in mol/L. The term Emax denotes the size of the effect at its maximum, as opposed to the concentration needed. In general, half-life refers to how long it takes for the measured level to halve. The term AUC denotes concentration integrated over time. By CL/F is commonly meant clearance divided by bioavailability, as obtained after extravascular dosing. For orientation: DC50 means the concentration giving 50% degradation. Low values mean a more potent degrader, high ones a less potent degrader.

pIC50: −log10 of the molar value. Activity calls are given as the source filed them. No cut-off for these calls is given here.

Sequence of Stimulator of interferon genes protein (Homo sapiens), Q86WV6 [UNDEFINED MUTATION] (Q86WV6 whole entry, looked up, stated change not applied): as the sequence (Q86WV6 whole entry) above
T1 sequence (Q86WV6 whole entry R71H/G230A/R293Q): as the sequence (Q86WV6 whole entry) above, with R71H, G230A, R293Q counted along it

Turning to `COc1ccc2c(c1)C(=O)N(c1ccc(C(C)(C)C)c(F)c1)C(c1cc3cc(-c4ccc(C(=O)Nc5ccc(O)c(NS(C)(=O)=O)c5)cc4)ccc3o1)C2C(N)=O` (stereo unspecified), the pIC50 is 6.96 in [1], 6.92 in data set [8] and 7.52 in [11]. Also, the inhibition entry in data set [2], in data set [5], in data set [10] and in data set [12] was “Active” each time. The result in data set [3] and in data set [13] was Active. Also, the Emax in [4] was found to be 89%. In [6], the half-life is above 4 h. This molecule registered an AUC in [7] of 2020 ng·h/mL. Also, the half-life at 10 µM in [9] is above 1 h. For the same molecule, in data set [14], the CL/F was 163 mL/min/kg. Also, in data set [15], the inhibition result is “inactive”. Also, in data set [16], the DC50 was found to be 760 nM.
